Experimental data taken from patent publication US20260327232A1, “Heteroaryl Compounds as Ligand Directed Degraders of IRAK4” (Celgene Corporation, priority 2023, published 2026).

Experiments:
[1] = target: T1, IRAK4 (Homo sapiens, UniProt Q9NWZ3); assay: IRAK4 PhosphoSens Biochemical Assay (BIOCHEM); conditions: 200 μM ATP, 10 μM peptide substrate AQT0326, 1 nM IRAK4, room temperature, 240 minutes
T1 sequence (Q9NWZ3 1-460): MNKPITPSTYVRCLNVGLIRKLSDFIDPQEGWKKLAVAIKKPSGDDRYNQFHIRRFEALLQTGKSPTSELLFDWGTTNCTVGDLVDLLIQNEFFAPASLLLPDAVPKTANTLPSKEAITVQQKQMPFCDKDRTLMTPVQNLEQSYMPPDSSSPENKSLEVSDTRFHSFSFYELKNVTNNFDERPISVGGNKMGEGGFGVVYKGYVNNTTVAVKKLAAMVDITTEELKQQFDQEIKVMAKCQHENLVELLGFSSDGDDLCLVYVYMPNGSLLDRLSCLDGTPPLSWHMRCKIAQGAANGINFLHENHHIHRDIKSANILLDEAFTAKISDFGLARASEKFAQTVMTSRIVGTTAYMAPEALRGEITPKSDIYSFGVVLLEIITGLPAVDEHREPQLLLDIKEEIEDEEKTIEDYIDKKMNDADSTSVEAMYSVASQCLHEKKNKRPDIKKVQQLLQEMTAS
Protocol: The PhosphoSens® biochemical assay was performed as described by the vendor (AssayQuant Technologies Inc. Marlborough, MA). A 1.25× stock solution of IRAK4 (PV4002, ThermoFisher Scientific, Waltham, MA) and a 5× stock solution of ATP and Sox conjugated peptide substrate, AQT0326 (CSKS-AQT0326B, AssayQuant Technologies), were prepared in 1× kinase reaction buffer consisting of 50 mM HEPES, pH 7.5, 0.01% Brij-35, 0.5 mM EGTA, 20 mM MgCl2 and 1 mM DTT. 10 μL of the ATP and substrate solution mix, for a final concentration of 200 μM ATP and 10 μM peptide substrate, was added to a Coming 3574 384-well, white, non-binding surface microtiter plate containing 0.5 μL of serially diluted test compounds prepared in DMSO. The reactions were started with the addition of 40 μL of the enzyme solution, for a final IRAK4 concentration of 1 nM, and monitored every 71 seconds for 240 minutes at λEX 360/λEM 485 in a BioTek Synergy H4 plate reader (Agilent Technologies, Santa Clara, CA) at room temperature. The initial linear portions of the progress curves were fit according to a linear equation to yield the slopes and converted to % inhibition based on a value of 100% activity for the no inhibitor treated control. IC50 values of each compound were obtained by fitting the % inhibition-compound concentration curves using Dotmatics software (Dotmatics, Bishops Stortford, Hertfordshire, England).

[2] = target: T1, IRAK4; assay: ALE THP1 HTRF (IRAK4 in THP1 cell lysates, Homogeneous Time Resolved Fluorescence); type: cell-based; set-up: THP1 Homogeneous Time Resolved Fluorescence (ALE THP1 HTRF) Procedure; endogenous in cells; host or cells: THP1; conditions: THP1 cells
Protocol: Cell culture media was prepared in a tissue culture hood in a sterile environment by adding 10% FBS and 1% Penicillin Streptomycin to 500 mL no phenol red RPMI 1640 media. The media was filtered through a Nalgene Bottle Top Filter and stored at 4° C.
For Homogenous Time Resolved Fluorescence (HTRF) assays, a Cisbio HTRF kit was used, which included: Lysis Buffer #1 4×, Blocking Reagent #3 100×, 20× Antibody 1 (Anti-IRAK4 d2), 20× Antibody 2 (Anti-IRAK4 k), and Detection Buffer.
4× Lysis Buffer was stored at 4° C. For use as 1× Lysis buffer, the 4× solution was diluted with de-ionized water (distilled water, Gibco Cat. #15230279) and 100× Blocking Reagent in a 1:3:0.04 volume ratio.
20× Antibody Solution aliquots were stored in −80° C. and the Detection Buffer was stored in 4° C. For use as a 1× Antibody Solution, the 20× Antibody Solution aliquot was diluted with Detection Buffer in a 1:19 volume ratio.
Cells were lysed at room temperature for 45 min with shaking. A BCA protein assay was performed and normalization was conducted to the desired total protein concentration with 1× lysis buffer. Next, 1× Antibody Solutions were prepared by adding 380 μL Detection Buffer to 20 μL 20× Antibody Solution aliquots and mixing well. 1× Antibody Solutions were combined 1:1 and briefly vortexed. For control wells, 20 μL 1× anti IRAK4-k Antibody Solution was saved. The 384-well plate (ProxiPlate-384 Plus, Perkin Elmer Cat. #6008289) was loaded by adding 4 μL of the mixed Antibody Solution to empty wells using a single channel repeater. Using a multi-channel repeater, 16 μL lysate was added per well, and any bubbles that were formed were popped with 20 μL pipette tips and Kimwipe edges. In column 10, triplicates of each control was prepared. In wells A10, B10, and C10, buffer control was prepared by adding 16 μL Lysis Buffer and 4 μL Detection Buffer. In wells D10, E10, and F10, cryptate control was prepared by adding 16 μL Lysis Buffer, 2 μL Detection Buffer, and 2 μL 1× anti IRAK4-k Antibody Solution. In wells G10, H10, and 110, a negative control was prepared by adding 16 μL Lysis Buffer and 4 μL mixed Antibody Solution. The plate was sealed with a clear seal and covered with an aluminum lid. The plate was spun down at 800 g for 5 min and incubated in the dark at room temperature overnight. The next day, the plate was spun down at 800 g for 5 min. The samples were analyzed by a plate reader (Envision, PerkinElmer) using the Desnor 384 HTRF program.

SMILES | IC50 [1] [nM] | EC50 [2] [nM]
Cn1nc(C2CCC(=O)NC2=O)c2ccc(N[C@@H]3CCN(CC4CCC(n5cc(NC(=O)c6cnn7ccc(N8C[C@H](N)C[C@@H](F)C8)nc67)c(C(F)F)n5)CC4)C[C@@H]3F)cc21 (stereo partly drawn) [P-24] | < 0.5 | 4
CN(CC1CCC(n2cc(NC(=O)c3cnn4ccc(N5Cc6cnn(C)c6C5)nc34)c(C(F)F)n2)CC1)C1CCN(c2ccc3c(C4CCC(=O)NC4=O)nn(C)c3c2)CC1 (stereo not drawn) [P-49] | 0.8 | > 10000
Cn1nc(C2CCC(=O)NC2=O)c2ccc(N[C@H]3CCN(CC4CCC(n5cc(NC(=O)c6cnn7ccc(N8C[C@H](N)C[C@@H](F)C8)nc67)c(C(F)F)n5)CC4)C[C@@H]3F)cc21 (stereo partly drawn) [P-25] | < 0.5 | 8

The remaining lines, values ahead:

IC50 [1] [nM] | EC50 [2] [nM] | SMILES
< 0.5 | 1 | Cn1nc(C2CCC(=O)NC2=O)c2ccc(NC3CCN(CC4CCC(n5cc(NC(=O)c6cnn7ccc(N8CC[C@H](F)[C@@H](N)C8)nc67)c(C(F)F)n5)CC4)CC3)cc21 (stereo partly drawn) [P-18, N-[3-(Difluoromethyl)-1-[4-[[4-[[3-(2,6-dioxo-3-piperidyl)-1-methyl-indazol-6-yl]amino]-1-piperidyl]methyl]cyclohexyl]pyrazol-4-yl]-5-[(3S,4S)-3-amino-4-fluoro-1-piperidyl]pyrazolo[1,5-a]pyrimidine-3-carboxamide]
< 0.5 | 14 | CN(CC1CCC(n2cc(NC(=O)c3cnn4ccc(N5C[C@H](N)C[C@@H](F)C5)nc34)c(C(F)F)n2)CC1)C1CCN(c2cccc3c(C4CCC(=O)NC4=O)nn(C)c23)CC1 (stereo partly drawn) [P-30, N-[3-(difluoromethyl)-1-[4-[[[1-[3-(2,6-dioxo-3-piperidyl)-1-methyl-indazol-7-yl]-4-piperidyl]-methyl-amino]methyl]cyclohexyl]pyrazol-4-yl]-5-[(3R,5R)-3-amino-5-fluoro-1-piperidyl]pyrazolo[1,5-a]pyrimidine-3-carboxamide]
< 0.5 | > 10000 | CN(c1cccc2c(C3CCC(=O)NC3=O)nn(C)c12)C1CCN(CCC2CCC(n3cc(NC(=O)c4cnn5ccc(N6CCOCC6)nc45)c(C(F)F)n3)CC2)CC1 (stereo not drawn) [P-39]
